Source: US20250090695A1, “IMMUNOSTIMULANT-CYTOTOXIC CONJUGATE COMPOSITION AND METHODS FOR CANCER TREATMENT” (The Research Foundation for the State University of New York, priority 2022, published 2025)

Experiments:
[1] = molecular target: T1, PSMA (Homo sapiens, UniProt Q04609); conditions: clinical trials; cited from earlier work
T1 construct: This has been leveraged in clinical trials using the radiotherapeutic 117Lu-PSMA-617; host or cells: tumours of prostate cancer patients

[2] = OLINDA dosimetry to adult male from mouse biodistribution
[3] = test system: RM1-PGLS tumors; assay type: in vivo, murine subjects; conditions: overall survival post treatment; RM1-PGLS tumors; P < 0.0007 printed for 177Lu-RIMS-1
Experimental: FIG. 11A-11C show a visual schematic of RM1-PGLS tumor insertion in mice followed by T-cell population analysis (FIG. 11A), and tumor efficacy study analysis for in vivo tumor treatment with experimental ^177Lu-RIMS-1 compound compared with control compounds: ^177Lu-PSMA-617, unlabeled Lu-RIMS, and saline (FIG. 11B) measuring tumor volume (left), and percent survival (right).
Murine subjects were treated with RIMS compounds and tumor volume (FIG. 11B, left), subject viability measured as percent survival (FIG. 11B, right), subject weight (FIG. 11C), were described and analyzed as shown in FIGS. 11A-11C. Median overall survivability (OS) in murine subjects treated with RIMS compounds and control therapies.

[4] = Biodistribution in a syngeneic model of prostate cancer with a RM1-PGLS tumor; conditions: C57BL/6J mice

T1 sequence (Q04609 whole entry): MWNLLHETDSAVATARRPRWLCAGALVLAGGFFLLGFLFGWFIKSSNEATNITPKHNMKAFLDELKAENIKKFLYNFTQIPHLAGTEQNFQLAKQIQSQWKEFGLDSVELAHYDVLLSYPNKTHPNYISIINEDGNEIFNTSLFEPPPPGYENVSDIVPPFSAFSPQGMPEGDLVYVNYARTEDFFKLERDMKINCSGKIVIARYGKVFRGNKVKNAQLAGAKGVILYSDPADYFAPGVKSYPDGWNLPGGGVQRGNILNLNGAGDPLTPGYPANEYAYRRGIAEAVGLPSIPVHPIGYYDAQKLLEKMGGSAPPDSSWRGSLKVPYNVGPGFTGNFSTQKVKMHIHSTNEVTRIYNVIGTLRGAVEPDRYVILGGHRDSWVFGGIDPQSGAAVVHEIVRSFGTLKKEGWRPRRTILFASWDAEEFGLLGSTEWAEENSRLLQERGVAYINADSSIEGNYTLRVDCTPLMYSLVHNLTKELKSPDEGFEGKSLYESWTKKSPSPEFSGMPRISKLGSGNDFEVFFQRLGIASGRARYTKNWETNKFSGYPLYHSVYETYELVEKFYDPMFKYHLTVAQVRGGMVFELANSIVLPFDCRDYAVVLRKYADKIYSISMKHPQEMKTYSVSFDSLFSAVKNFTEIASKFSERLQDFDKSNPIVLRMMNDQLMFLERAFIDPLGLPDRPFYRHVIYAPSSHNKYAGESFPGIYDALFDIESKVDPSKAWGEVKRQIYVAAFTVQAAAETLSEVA

## O=C([O-])CN1CCN(CC(=O)[O-])CCN(CC(=O)NCC2CCC(C(=O)N[C@@H](Cc3ccc4ccccc4c3)C(=O)NCCCC[C@H](NC(=O)N[C@@H](CCC(=O)O)C(=O)O)C(=O)O)CC2)CCN(CC(=O)[O-])CC1.[177Lu+3] (stereo partly drawn) [^177Lu-PSMA-617]
[1]
  Non-responders among patients: 30%
[2]; Target Organ Adrenals
  OLINDA dosimetry to Adult Male, Adrenals: 1.32 μSv/MBq
[2]; Target Organ Brain
  OLINDA dosimetry to Adult Male, Brain: 0.00 μSv/MBq
[2]; Target Organ Esophagus
  OLINDA dosimetry to Adult Male, Esophagus: 0.25 μSv/MBq
[2]; Target Organ Eyes
  OLINDA dosimetry to Adult Male, Eyes: 0.00 μSv/MBq
[2]; Target Organ Gallbladder Wall
  OLINDA dosimetry to Adult Male, Gallbladder Wall: 0.93 μSv/MBq
[2]; Target Organ Heart Wall
  OLINDA dosimetry to Adult Male, Heart Wall: 1.57 μSv/MBq
[2]; Target Organ Kidneys
  OLINDA dosimetry to Adult Male, Kidneys: 54.70 μSv/MBq
[2]; Target Organ Left Colon
  OLINDA dosimetry to Adult Male, Left Colon: 0.18 μSv/MBq
[2]; Target Organ Liver
  OLINDA dosimetry to Adult Male, Liver: 27.80 μSv/MBq
[2]; Target Organ Lungs
  OLINDA dosimetry to Adult Male, Lungs: 2.43 μSv/MBq
[2]; Target Organ Osteogenic Cells
  OLINDA dosimetry to Adult Male, Osteogenic Cells: 0.83 μSv/MBq
[2]; Target Organ Pancreas
  OLINDA dosimetry to Adult Male, Pancreas: 0.32 μSv/MBq
[2]; Target Organ Prostate
  OLINDA dosimetry to Adult Male, Prostate: 0.10 μSv/MBq
[2]; Target Organ Rectum
  OLINDA dosimetry to Adult Male, Rectum: 0.07 μSv/MBq
[2]; Target Organ Red Marrow
  OLINDA dosimetry to Adult Male, Red Marrow: 0.10 μSv/MBq
[2]; Target Organ Right Colon
  OLINDA dosimetry to Adult Male, Right Colon: 0.27 μSv/MBq
[2]; Target Organ Salivary Glands
  OLINDA dosimetry to Adult Male, Salivary Glands: 0.01 μSv/MBq
[2]; Target Organ Small Intestine
  OLINDA dosimetry to Adult Male, Small Intestine: 1.54 μSv/MBq
[2]; Target Organ Spleen
  OLINDA dosimetry to Adult Male, Spleen: 0.25 μSv/MBq
[2]; Target Organ Stomach Wall
  OLINDA dosimetry to Adult Male, Stomach Wall: 0.23 μSv/MBq
[2]; Target Organ Thymus
  OLINDA dosimetry to Adult Male, Thymus: 0.11 μSv/MBq
[2]; Target Organ Thyroid
  OLINDA dosimetry to Adult Male, Thyroid: 0.05 μSv/MBq
[2]; Target Organ Total Body
  OLINDA dosimetry to Adult Male, Today Body: 1.13 μSv/MBq
[2]; Target Organ Tumor
  OLINDA dosimetry to Adult Male, Tumor: 145.00 μSv/MBq
[2]; Target Organ Urinary Bladder Wall
  OLINDA dosimetry to Adult Male, Urinary Bladder Wall: 7.66 μSv/MBq
[3]
  Median OS: 15 days
[4]; 2 h
  Biodistribution Blood (% ID/g ± SD): 0.03 ± 0.02 % ID/g
  Biodistribution Bone (% ID/g ± SD): 0.05 ± 0.05 % ID/g
  Biodistribution Heart (% ID/g ± SD): 0.03 ± 0.01 % ID/g
  Biodistribution Kidney (% ID/g ± SD): 1.39 ± 0.48 % ID/g
  Biodistribution Liver (% ID/g ± SD): 0.17 ± 0.12 % ID/g
  Biodistribution Muscle (% ID/g ± SD): 0.05 ± 0.05 % ID/g
  Biodistribution RM1-PGLS tumor (% ID/g ± SD): 0.80 ± 0.18 % ID/g
  Biodistribution Sm Int (% ID/g ± SD): 0.03 ± 0.01 % ID/g
  Biodistribution Spleen (% ID/g ± SD): 0.08 ± 0.03 % ID/g
[4]; 24 h
  Biodistribution Blood (% ID/g ± SD): 0.00 ± 0.00 % ID/g
  Biodistribution Bone (% ID/g ± SD): 0.01 ± 0.01 % ID/g
  Biodistribution Heart (% ID/g ± SD): 0.01 ± 0.00 % ID/g
  Biodistribution Kidney (% ID/g ± SD): 0.09 ± 0.07 % ID/g
  Biodistribution Liver (% ID/g ± SD): 0.02 ± 0.01 % ID/g
  Biodistribution Muscle (% ID/g ± SD): 0.01 ± 0.01 % ID/g
  Biodistribution RM1-PGLS tumor (% ID/g ± SD): 0.25 ± 0.09 % ID/g
  Biodistribution Sm Int (% ID/g ± SD): 0.01 ± 0.01 % ID/g
  Biodistribution Spleen (% ID/g ± SD): 0.02 ± 0.01 % ID/g
[4]; 72 h
  Biodistribution Blood (% ID/g ± SD): 0.01 ± 0.01 % ID/g
  Biodistribution Bone (% ID/g ± SD): 0.01 ± 0.01 % ID/g
  Biodistribution Heart (% ID/g ± SD): 0.01 ± 0.00 % ID/g
  Biodistribution Kidney (% ID/g ± SD): 0.04 ± 0.01 % ID/g
  Biodistribution Liver (% ID/g ± SD): 0.02 ± 0.01 % ID/g
  Biodistribution Muscle (% ID/g ± SD): 0.01 ± 0.00 % ID/g
